Measurements as given in patent US10292390B2, “Inhibition and dispersion of bacterial biofilms with 2-aminobenzimidazole derivatives” (WISCONSIN ALUMNI RESEARCH FOUNDATION, priority 2011, dated 2019).
Read-outs that look alike come from different tables or passages of the source.

What was measured:
[1] = tested on: P. aeruginosa PAO1 biofilm; assay: crystal violet static biofilm inhibition assay; type: cell-based, Pseudomonas aeruginosa; details: for anti-biofilm (biofilm inhibitory) activity in words: initial screen at 500 μM, 12 and 24 h; for IC50: Pseudomonas aeruginosa, PAO1; for inhibition of biofilm growth: at 100 micro M, 24 h
Description: Stilbenes 1, 2, and 4a-b were tested for inhibition of biofilm formation in a wild-type P. aeruginosa strain (PAO1) at 500 μM using standard static biofilm growth assays.
Biofilms were grown in a modified M9 minimal media in 96-well microtiter plates, and crystal violet staining of the surface-associated biomass was used to quantify biofilm growth at 12 and 24 h (see The Examples).
A modified version of the widely used crystal violet (CV) microtiter plate biofilm assay, first described by Christensen et al. and later popularized by O'Toole et al., [57] was used in this study and is described in detail below.
Compounds to be evaluated for biofilm modulatory activity were added to the assay microtiter plates by means of a “solvent evaporation” delivery. This delivery method involves preparation of compound stock solutions, addition of stocks to microtiter plates at appropriate volumes to obtain target molar quantities per well, evaporation of the solvent, and re-solubilization of the compound in the final assay medium upon inoculum addition. This delivery method was adopted to avoid the biofilm inhibitory effects observed with an “organic solvent-to-solution” delivery method (e.g., DMSO-to-media; data not shown), which is more commonly done in small molecule screens. EtOH was chosen as the solvent for solvent evaporation delivery in this study based on the chemical resistance limitations of polystyrene microtiter plates. Prior to each experiment, EtOH stock solutions of compounds being evaluated were prepared, diluted, and added to microtiter plates at varied volumes to obtain a target final concentration per well upon inoculum addition. Plates were incubated at 37° C. to evaporate EtOH and sterilized in a Baker SterilGARD III Advance Biological Safety Cabinet by UV-C germicidal irradiation for 30 min (lids removed). EtOH only was added to wells designated as “no compound” positive controls (Pos. Con.) and “no bacteria” negative controls (note, controls lacking bacteria yielded no significant staining in the CV assay (data not shown)). The outer wells were never used for test samples as evaporation and significant deviations in growth were observed; thus, outer wells were filled with sterile 18 MΩ H2O to minimize these effects.
Bacterial samples for biofilm assessment were prepared by first streaking a freezer stock of P. aeruginosa PAO1 on an LB/agar plate and incubating at 37° C. for ˜16 h. Single colonies were selected and used to inoculate LB medium (10 mL) in a 25 mL Erlenmeyer flask. The culture was grown on an incubator-shaker (200 rpm) at 37° C. for ˜16 h to an OD600 of ˜1.0. Overnight cultures were gently decanted into falcon tubes to minimize transfer of biofilm produced during overnight growth. An inoculating culture was prepared by centrifuging an aliquot of overnight culture at 3,000 rpm for 10 min, removal of the supernatant, and then re-suspending the pellet in 95:5 M9+:LB at 10-fold the initial volume (effecting a 1-in-10 dilution; OD600 ˜0.1-0.2). Using a multi-channel pipette, this culture was added to test microtiter plates in 200 μL aliquots. The well contents were mixed using a 10 μL multi-channel pipette in a swirling motion; insoluble compound samples were noted and later excluded from the data set as needed.
Plates were covered with the provided lid and incubated statically at 37° C. for 12-24 h. Maximal biofilm formation is obtained at 24 h, after which the amount of biofilm declines unless fresh nutrients are provided. After incubation, the OD600 was measured, and the bacterial suspension was removed by inverting and shaking the plate over a waste pan and then taping on a paper towel (process termed “dumping”). Non-biofilm associated biomaterial was removed by adding 225 μL PBS and dumping (process termed “washing”) and then repeating this washing process. Biofilm was fixed to the microtiter plates by uncovering the plate and thermally dehydrating at 37° C. […]

Gram-positive bacteria = details: WO 2010/144686 (7); ref. 34 (18); cited from earlier work
[2] = 12 h incubation, CV assay, read-out: 12 h biofilm IC50
[3] = 24 h incubation, CV assay, read-out: 24 h biofilm IC50
[4] = Table 1, crystal violet, read-out: IC50, P. aeruginosa PAO1 biofilm inhibition

Row | SMILES | anti-biofilm (biofilm inhibitory) activity in words [1] | IC50 [1, 2] | IC50 [1, 3] | IC50 [1, 4] | inhibition of biofilm growth [1] | biofilm inhibition in Gram-positive bacteria as reported (Gram-positive bacteria)
1 | C(=C\c1ccc2nc[nH]c2c1)/c1ccccc1 [Compound 5, 6-Styryl-1H-benzimidazole] | complete loss of inhibitory activity | – | – | – | – | –
2 | COc1ccc2[nH]c(=S)[nH]c2c1 [Compound 5-OMe-2-TBI, reference compound] | significantly less active than 2-ABI derivatives | – | – | – | – | –
3 | N#Cc1ccc2[nH]c(N)nc2c1 [Compound 17, 5-Cyano-2-aminobenzimidazole] | – | 199 µM | 175 µM | 180 µM | – | –
4 | COc1ccc2[nH]c(N)nc2c1 [Compound 22, 5-Methoxy-2-aminobenzimidazole] | – | 73.8 µM | 80.1 µM | 80 µM | – | –
5 | Nc1nc2cc(C(=O)O)ccc2[nH]1 [Compound 16, 5-Carboxylic acid-2-aminobenzimidazole] | total loss | – | – | – | – | –
6 | Nc1nc2cc3ccccc3cc2[nH]1 [Compound 24, 2-Amino-1H-naphtho[2,3-d]imidazole] | – | 54.5 µM | 48.3 µM | 48 µM | – | –
7 | Nc1nc(-c2ccc(/C=C/c3ccccc3)cc2)c[nH]1 [Compound 2, 4-(E)-Stilbene-2-aminoimidazole] | – | 3.8 µM | 18 µM | – | 48% | –
8 | N=C(N)N [Compound 9, Guanidine, reference compound] | neither 2-AI (8) nor guanidine (9) was found to display significant inhibitory activity | – | – | – | – | –
9 | Nc1ncc[nH]1 [Compound 8, 2-aminoimidazole, reference compound] | neither 2-AI (8) nor guanidine (9) was found to display significant inhibitory activity | – | – | – | – | –
10 | S=c1[nH]c2ccccc2[nH]1 [Compound 2-TBI, 2-thiobenzamidazole, reference compound] | significantly less active than 2-ABI derivatives | – | – | – | – | –
11 | Nc1nc2cc(I)ccc2[nH]1 [Compound 10, 5-Iodo-2-aminobenzimidazole] | – | 26.3 µM | 20.3 µM | 20 µM | – | –
12 | Nc1nc2cc(F)ccc2[nH]1 [Compound 13, 5-Fluoro-2-aminobenzimidazole] | – | 30.2 µM | 35.2 µM | 35 µM | – | –
13 | C(=C\c1ccc2cc[nH]c2c1)/c1ccccc1 [Compound 4b, 6-Styryl-1H-indole] | Neither indole, derivative (4a-b), however, showed appreciable anti-biofilm activity | – | – | – | – | –
14 | Nc1nc2cc(Br)ccc2[nH]1 [Compound 11, 5-Bromo-2-aminobenzimidazole] | – | 22 µM | 22.2 µM | 22 µM | – | –
15 | C(=C\c1ccc2[nH]ccc2c1)/c1ccccc1 [Compound 4a, 5-Styryl-1H-indole] | Neither indole, derivative (4a-b), however, showed appreciable anti-biofilm activity | – | – | – | – | –
16 | Nc1nc2ccc(/C=C/c3ccccc3)cc2[nH]1 [Compound 1, 6-Styryl-2-aminobenzimidazole] | – | 13 µM | 8.9 µM | – | 56% | –
17 | Nc1nc2cc([N+](=O)[O-])ccc2[nH]1 [Compound 18, 5-Nitro-2-aminobenzimidazole] | – | 49.6 µM | 63.1 µM | 63 µM | – | reported to be a biofilm inhibitor in Gram-positive bacteria
18 | Nc1nc2cc(Cl)ccc2[nH]1 [Compound 12, 5-Chloro-2-aminobenzimidazole] | – | 25.7 µM | 27.5 µM | 28 µM | – | –
19 | Cc1ccc2[nH]c(N)nc2c1 [Compound 20, 5-Methyl-2-aminobenzimidazole] | – | 27.3 µM | 25.4 µM | 25 µM | – | –
20 | COC(=O)c1ccc2[nH]c(N)nc2c1 [Compound 15, 5-Carboxylic acid methyl ester-2-aminobenzimidazole] | – | 186 µM | 139 µM | 140 µM | – | –
21 | Cc1cccc2[nH]c(N)nc12 [Compound 19, 4-Methyl-2-aminobenzimidazole] | – | 37.6 µM | 38.7 µM | 39 µM | – | –
22 | C(=Cc1ccccc1)c1ccccc1 [Compound 6, Stilbene, reference compound] | complete loss of inhibitory activity | – | – | – | – | –
